Experimental data published in publication PMC4429609 (Journal of medicinal chemistry, 2012).

How the values were obtained:
Assay in all cases: biochemical
CHK1 = CHK1 (Homo sapiens, UniProt O14757); conditions: read-out: % Inhibition at 1 μM, CHK1
TRKA = TRKA (Homo sapiens, UniProt P04629); conditions: read-out: % Inhibition at 1 μM, TRKA
ROCK1 = ROCK1 (Homo sapiens, UniProt Q13464); conditions: read-out: % Inhibition at 1 μM, ROCK1
AKT1 = AKT1 (Homo sapiens, UniProt P31749); conditions: read-out: % Inhibition at 1 μM, AKT1
AKT1, sequence (P31749 whole entry): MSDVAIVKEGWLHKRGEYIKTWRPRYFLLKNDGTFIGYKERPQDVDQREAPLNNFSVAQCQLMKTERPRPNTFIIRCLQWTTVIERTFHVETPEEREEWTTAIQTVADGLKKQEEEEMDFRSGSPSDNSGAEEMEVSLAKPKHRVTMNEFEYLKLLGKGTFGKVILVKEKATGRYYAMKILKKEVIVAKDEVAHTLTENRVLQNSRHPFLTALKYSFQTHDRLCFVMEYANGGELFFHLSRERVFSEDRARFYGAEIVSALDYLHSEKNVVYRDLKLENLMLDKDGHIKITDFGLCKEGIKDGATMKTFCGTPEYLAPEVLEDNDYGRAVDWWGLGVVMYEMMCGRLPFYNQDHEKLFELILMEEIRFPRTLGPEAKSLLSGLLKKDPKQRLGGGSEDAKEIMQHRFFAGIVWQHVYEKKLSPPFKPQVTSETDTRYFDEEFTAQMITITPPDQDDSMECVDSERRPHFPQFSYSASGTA

PLK1 = PLK1 (Homo sapiens, UniProt P53350); conditions: read-out: % Inhibition at 1 μM, PLK1
NEK6 = NEK6 (Homo sapiens, UniProt Q9HC98); conditions: read-out: % Inhibition at 1 μM, NEK6
NEK6, sequence (Q9HC98 whole entry, looked up): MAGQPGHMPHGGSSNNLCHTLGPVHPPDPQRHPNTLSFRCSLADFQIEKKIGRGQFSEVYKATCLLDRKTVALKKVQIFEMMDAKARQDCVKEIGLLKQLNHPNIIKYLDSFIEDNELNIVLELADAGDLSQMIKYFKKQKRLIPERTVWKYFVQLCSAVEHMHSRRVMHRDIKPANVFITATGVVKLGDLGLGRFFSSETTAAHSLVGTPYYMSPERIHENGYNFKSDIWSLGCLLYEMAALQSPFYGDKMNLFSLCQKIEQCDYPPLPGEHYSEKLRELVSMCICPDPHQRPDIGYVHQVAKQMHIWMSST

CHK2 = CHK2 (Homo sapiens, UniProt O96017); conditions: read-out: % Inhibition at 1 μM, CHK2
CDK2/cyclin A = CDK2/cyclin A (Homo sapiens, UniProt P24941); conditions: read-out: % Inhibition at 1 μM, CDK2/cyclin A
WEE1 = WEE1 (Homo sapiens, UniProt P30291); conditions: read-out: % Inhibition at 1 μM, WEE1
WEE1, sequence (P30291 whole entry, looked up): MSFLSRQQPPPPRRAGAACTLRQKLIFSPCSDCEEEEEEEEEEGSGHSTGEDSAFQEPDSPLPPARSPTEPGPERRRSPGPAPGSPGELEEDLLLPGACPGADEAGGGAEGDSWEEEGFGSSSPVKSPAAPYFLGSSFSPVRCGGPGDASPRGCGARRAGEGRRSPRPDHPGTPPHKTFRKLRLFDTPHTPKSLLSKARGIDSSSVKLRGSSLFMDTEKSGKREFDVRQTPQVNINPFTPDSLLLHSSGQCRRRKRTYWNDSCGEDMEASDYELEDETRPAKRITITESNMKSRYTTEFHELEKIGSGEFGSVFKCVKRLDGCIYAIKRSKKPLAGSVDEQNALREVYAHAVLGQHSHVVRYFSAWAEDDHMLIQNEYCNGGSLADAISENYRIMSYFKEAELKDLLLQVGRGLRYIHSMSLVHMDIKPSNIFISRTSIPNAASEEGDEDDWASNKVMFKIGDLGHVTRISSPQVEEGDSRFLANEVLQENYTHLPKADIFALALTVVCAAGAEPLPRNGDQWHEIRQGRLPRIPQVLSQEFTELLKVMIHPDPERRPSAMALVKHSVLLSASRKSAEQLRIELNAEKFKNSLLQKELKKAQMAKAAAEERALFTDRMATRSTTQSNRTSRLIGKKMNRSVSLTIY

CDK1/cyclin B = CDK1/cyclin B (Homo sapiens, UniProt P06493); conditions: read-out: % Inhibition at 1 μM, CDK1/cyclin B
NEK11 = NEK11 (Homo sapiens, UniProt Q8NG66); conditions: read-out: % Inhibition at 1 μM, NEK11
NEK11, sequence (Q8NG66 whole entry, looked up): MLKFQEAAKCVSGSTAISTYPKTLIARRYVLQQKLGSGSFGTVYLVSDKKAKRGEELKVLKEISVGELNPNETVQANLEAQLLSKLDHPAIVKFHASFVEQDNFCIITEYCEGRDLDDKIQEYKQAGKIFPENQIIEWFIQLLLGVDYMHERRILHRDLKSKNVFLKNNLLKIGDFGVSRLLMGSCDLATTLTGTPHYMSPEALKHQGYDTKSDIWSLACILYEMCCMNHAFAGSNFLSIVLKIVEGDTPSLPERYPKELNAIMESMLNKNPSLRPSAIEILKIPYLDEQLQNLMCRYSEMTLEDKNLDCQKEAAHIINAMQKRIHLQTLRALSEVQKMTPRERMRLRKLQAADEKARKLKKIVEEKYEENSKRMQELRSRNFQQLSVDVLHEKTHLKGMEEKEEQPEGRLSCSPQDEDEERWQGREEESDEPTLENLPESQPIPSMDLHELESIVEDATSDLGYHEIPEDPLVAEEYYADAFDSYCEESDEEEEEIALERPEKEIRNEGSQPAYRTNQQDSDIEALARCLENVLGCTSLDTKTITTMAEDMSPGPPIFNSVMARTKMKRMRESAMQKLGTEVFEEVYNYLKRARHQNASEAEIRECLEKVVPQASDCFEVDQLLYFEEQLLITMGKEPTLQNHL

RET = RET (Homo sapiens, UniProt P07949); conditions: read-out: % Inhibition at 1 μM, RET
RET, sequence (P07949 29-1114): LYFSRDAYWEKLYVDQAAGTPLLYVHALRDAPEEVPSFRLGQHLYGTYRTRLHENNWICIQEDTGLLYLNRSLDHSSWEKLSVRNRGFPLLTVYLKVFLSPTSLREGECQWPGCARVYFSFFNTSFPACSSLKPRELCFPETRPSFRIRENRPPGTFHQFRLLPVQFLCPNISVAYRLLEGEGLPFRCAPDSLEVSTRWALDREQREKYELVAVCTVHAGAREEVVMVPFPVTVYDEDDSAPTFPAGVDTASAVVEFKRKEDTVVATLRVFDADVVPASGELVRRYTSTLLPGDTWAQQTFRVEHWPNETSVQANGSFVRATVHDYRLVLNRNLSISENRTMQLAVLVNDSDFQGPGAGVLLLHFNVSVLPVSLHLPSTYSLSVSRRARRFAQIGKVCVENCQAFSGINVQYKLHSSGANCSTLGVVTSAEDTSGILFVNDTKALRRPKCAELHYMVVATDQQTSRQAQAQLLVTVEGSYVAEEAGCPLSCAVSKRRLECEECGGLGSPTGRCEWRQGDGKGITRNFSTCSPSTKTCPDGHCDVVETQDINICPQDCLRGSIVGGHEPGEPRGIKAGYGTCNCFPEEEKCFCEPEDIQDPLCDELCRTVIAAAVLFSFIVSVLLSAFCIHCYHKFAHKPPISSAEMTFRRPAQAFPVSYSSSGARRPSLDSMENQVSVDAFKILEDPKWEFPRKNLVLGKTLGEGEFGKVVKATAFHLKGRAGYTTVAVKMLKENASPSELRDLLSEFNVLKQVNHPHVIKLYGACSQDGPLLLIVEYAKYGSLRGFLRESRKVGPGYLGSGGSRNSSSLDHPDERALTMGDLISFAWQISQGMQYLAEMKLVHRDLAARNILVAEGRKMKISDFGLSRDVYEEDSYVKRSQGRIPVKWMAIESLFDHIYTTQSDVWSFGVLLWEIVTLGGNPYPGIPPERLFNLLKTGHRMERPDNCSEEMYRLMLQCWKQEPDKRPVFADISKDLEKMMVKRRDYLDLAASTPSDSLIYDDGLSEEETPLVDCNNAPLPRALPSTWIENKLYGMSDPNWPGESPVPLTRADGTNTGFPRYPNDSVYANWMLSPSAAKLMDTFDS

ROCK1, sequence (Q13464 whole entry, looked up): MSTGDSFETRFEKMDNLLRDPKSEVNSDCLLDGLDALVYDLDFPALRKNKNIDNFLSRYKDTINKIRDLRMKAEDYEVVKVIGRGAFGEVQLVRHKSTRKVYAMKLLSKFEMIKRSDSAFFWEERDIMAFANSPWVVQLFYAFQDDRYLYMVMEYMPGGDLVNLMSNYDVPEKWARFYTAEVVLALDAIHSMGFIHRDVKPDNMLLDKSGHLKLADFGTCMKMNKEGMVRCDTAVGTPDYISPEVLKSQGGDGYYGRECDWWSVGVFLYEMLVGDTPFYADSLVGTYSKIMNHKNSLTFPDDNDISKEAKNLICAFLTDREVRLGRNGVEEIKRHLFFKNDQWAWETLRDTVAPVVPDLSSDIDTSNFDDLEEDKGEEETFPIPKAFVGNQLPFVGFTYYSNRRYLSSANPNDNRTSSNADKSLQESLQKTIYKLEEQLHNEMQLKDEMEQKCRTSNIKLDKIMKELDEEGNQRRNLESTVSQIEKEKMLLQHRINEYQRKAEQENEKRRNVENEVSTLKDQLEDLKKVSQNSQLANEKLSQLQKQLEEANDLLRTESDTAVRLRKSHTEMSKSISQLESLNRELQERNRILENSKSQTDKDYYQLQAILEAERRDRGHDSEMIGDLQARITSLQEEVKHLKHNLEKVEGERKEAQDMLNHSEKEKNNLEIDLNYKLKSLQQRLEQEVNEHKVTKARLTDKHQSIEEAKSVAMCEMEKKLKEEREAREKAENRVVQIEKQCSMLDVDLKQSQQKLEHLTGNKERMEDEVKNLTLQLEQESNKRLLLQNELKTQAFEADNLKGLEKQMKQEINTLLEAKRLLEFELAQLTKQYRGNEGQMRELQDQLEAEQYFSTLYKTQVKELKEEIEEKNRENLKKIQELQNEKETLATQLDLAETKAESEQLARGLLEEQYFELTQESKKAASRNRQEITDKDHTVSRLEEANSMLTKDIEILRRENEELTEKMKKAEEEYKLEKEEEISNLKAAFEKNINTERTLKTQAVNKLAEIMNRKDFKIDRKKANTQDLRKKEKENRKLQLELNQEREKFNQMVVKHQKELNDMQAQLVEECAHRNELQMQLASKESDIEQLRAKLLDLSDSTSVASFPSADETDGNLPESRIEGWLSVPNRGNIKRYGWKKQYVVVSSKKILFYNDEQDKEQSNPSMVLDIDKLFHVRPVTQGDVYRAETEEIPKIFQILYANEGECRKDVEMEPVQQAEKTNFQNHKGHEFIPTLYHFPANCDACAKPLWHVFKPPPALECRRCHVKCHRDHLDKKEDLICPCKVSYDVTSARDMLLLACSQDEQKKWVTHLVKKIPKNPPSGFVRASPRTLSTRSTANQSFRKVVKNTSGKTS
CHK1, sequence (O14757 whole entry): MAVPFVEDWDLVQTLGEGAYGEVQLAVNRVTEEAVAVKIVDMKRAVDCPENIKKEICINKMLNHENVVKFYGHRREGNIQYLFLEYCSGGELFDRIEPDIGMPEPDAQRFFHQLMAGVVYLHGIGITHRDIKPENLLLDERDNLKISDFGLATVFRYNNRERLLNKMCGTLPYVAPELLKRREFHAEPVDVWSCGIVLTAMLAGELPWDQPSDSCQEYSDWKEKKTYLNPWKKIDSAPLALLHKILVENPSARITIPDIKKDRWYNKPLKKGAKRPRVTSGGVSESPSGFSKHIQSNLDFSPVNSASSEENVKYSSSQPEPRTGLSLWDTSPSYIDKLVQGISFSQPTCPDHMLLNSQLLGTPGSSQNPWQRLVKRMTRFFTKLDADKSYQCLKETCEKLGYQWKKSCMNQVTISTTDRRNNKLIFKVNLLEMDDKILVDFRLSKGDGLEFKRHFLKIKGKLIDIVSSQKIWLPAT

`Cc1cc(Nc2cc(N3CCN(C)CC3)nc(Sc3ccc(NC(=O)C4CC4)cc3)n2)n[nH]1` [VX-680] was tested, and the inhibition at 1 µM (CHK1) was 16%, the inhibition at 1 µM (TRKA) was 95% and the inhibition at 1 µM (ROCK1) was -2%. For the same molecule, the inhibition at 1 µM (AKT1) was 3%, the inhibition at 1 µM (PLK1) was 0% and the inhibition at 1 µM (NEK6) was -5%. It also gave an inhibition at 1 µM (CHK2) of 4%, an inhibition at 1 µM (CDK2/cyclin A) of 7% and an inhibition at 1 µM (WEE1) of 2%. The inhibition at 1 µM (CDK1/cyclin B) was 5%, the inhibition at 1 µM (NEK11) was 11% and the inhibition at 1 µM (RET) was 96%.
